Laboratory results from ChEMBL document CHEMBL5136991, “Dual-target inhibitors of poly (ADP-ribose) polymerase-1 for cancer therapy: Advances, challenges, and opportunities” (Eur J Med Chem, 2022).
One block for each compound: values may come before it.

Legend:
[1] = Ratio of olaparib IC50 to test compound IC50 for antiproliferative against BRCA deficient human HCC1937 cells; type: functional
[2] = Ratio of olaparib IC50 to test compound IC50 for antiproliferative against BRCA proficient human MCF7 cells; type: functional
[3] = Inhibition of PARP (unknown origin); design: species or system Homo sapiens
[4] = molecular target: Poly [ADP-ribose] polymerase 2 (Homo sapiens, UniProt Q9UGN5); test: Inhibition of PARP2 (unknown origin) incubated for 60 mins by microplate assay kit method
[5] = molecular target: T1, Poly [ADP-ribose] polymerase 1 (Homo sapiens, UniProt P09874); test: Inhibition of PARP1 (unknown origin) incubated for 60 mins by microplate assay kit method
[6] = Inhibition of porcine brain microtubule polymerization incubated for 105 mins by fluorescent based assay; design: species or system Sus scrofa
[7] = molecular target: Dihydroorotate dehydrogenase (quinone), mitochondrial (Homo sapiens, UniProt Q02127); test: Inhibition of DHODH (unknown origin)
[8] = molecular target: T1, Poly [ADP-ribose] polymerase 1; test: Inhibition of PARP1 (unknown origin) at […] relative to control
[9] = molecular target: T2, Bromodomain-containing protein 4 (Homo sapiens, UniProt O60885); test: Inhibition of BRD4 (unknown origin) at […] relative to control
[10] = Cmax in Sprague-Dawley rat plasma at 10 mg/kg, po; type: ADME, organism-based; design: dose 10 mg/kg, route po; conditions: in vivo
[11] = Tmax in Sprague-Dawley rat plasma at 10 mg/kg, po; type: ADME, organism-based; conditions: in vivo
[12] = molecular target: T2, Bromodomain-containing protein 4; test: Inhibition of BRD4 (unknown origin)
[13] = molecular target: T1, Poly [ADP-ribose] polymerase 1; test: Inhibition of PARP1 (unknown origin) relative to control; conditions: concentration not given here
[14] = MRT in Sprague-Dawley rat plasma at 10 mg/kg, po; type: ADME, organism-based
[15] = molecular target: T2, Bromodomain-containing protein 4; test: Ratio of IC50 for RVX-208 to IC50 for test compound for BRD4 (unknown origin)
[16] = AUC (0 to infinity) in Sprague-Dawley rat plasma at 10 mg/kg, po; type: ADME, organism-based; design: time infinity, dose 10 mg/kg, route po; conditions: in vivo
[17] = molecular target: T1, Poly [ADP-ribose] polymerase 1; test: Inhibition of PARP1 (unknown origin)
[18] = molecular target: T2, Bromodomain-containing protein 4; test: Inhibition of BRD4 (unknown origin) relative to control; conditions: concentration not given here
[19] = molecular target: T3, Bromodomain-containing protein 1 (Homo sapiens, UniProt O95696); test: Inhibition of BRD1 (unknown origin)
T3 sequence (O95696 whole entry): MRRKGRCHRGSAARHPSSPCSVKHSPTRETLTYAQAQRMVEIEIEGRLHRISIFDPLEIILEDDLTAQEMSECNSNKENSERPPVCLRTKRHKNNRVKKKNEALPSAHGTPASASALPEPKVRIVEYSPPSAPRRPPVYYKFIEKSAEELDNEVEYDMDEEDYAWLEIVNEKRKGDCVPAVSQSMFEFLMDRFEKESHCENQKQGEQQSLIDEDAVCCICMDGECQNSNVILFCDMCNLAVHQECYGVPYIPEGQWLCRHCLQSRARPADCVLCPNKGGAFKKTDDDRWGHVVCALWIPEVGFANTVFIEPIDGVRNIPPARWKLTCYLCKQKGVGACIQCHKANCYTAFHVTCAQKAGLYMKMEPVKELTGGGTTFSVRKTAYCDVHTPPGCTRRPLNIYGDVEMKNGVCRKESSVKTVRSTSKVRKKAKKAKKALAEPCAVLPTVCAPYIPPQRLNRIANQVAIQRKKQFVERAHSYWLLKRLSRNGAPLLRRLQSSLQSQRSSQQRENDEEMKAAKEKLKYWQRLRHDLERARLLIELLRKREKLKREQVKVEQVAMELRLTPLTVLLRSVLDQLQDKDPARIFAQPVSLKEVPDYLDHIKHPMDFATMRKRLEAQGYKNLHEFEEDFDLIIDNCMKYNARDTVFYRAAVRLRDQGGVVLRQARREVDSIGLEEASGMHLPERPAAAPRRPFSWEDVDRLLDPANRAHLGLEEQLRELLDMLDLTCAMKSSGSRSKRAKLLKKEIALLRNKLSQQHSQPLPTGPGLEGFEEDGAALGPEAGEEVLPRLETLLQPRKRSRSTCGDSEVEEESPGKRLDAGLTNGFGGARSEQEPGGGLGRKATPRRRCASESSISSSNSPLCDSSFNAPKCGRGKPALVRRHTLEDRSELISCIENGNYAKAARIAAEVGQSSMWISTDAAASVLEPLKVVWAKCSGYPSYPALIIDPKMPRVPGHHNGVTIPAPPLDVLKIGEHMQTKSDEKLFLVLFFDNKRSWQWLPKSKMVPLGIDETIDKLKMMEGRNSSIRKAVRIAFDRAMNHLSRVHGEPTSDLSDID

[20] = molecular target: Bromodomain-containing protein 2 (Homo sapiens, UniProt P25440); test: Inhibition of BRD2 (unknown origin)
[21] = Half life in Sprague-Dawley rat plasma at 10 mg/kg, po; type: ADME, organism-based; conditions: in vivo
HCC1937 = test: Antiproliferative activity against BRCA deficient human HCC1937 cells assessed as inhibition of cell growth incubated for 48 hrs by MTT assay; type: functional, cell-based; conditions: HCC1937, 48 h
MCF7 = test: Antiproliferative activity against BRCA proficient human MCF7 cells assessed as inhibition of cell growth incubated for 48 hrs by MTT assay; type: functional, cell-based; conditions: MCF7, 48 h
[22] = molecular target: Rho-associated protein kinase 1 (Homo sapiens, UniProt Q13464); test: Inhibition of ROCK1 (unknown origin)
[23] = molecular target: Rho-associated protein kinase 2 (Homo sapiens, UniProt O75116); test: Inhibition of ROCK2 (unknown origin)
Rho-associated protein kinase 2, sequence (O75116 whole entry): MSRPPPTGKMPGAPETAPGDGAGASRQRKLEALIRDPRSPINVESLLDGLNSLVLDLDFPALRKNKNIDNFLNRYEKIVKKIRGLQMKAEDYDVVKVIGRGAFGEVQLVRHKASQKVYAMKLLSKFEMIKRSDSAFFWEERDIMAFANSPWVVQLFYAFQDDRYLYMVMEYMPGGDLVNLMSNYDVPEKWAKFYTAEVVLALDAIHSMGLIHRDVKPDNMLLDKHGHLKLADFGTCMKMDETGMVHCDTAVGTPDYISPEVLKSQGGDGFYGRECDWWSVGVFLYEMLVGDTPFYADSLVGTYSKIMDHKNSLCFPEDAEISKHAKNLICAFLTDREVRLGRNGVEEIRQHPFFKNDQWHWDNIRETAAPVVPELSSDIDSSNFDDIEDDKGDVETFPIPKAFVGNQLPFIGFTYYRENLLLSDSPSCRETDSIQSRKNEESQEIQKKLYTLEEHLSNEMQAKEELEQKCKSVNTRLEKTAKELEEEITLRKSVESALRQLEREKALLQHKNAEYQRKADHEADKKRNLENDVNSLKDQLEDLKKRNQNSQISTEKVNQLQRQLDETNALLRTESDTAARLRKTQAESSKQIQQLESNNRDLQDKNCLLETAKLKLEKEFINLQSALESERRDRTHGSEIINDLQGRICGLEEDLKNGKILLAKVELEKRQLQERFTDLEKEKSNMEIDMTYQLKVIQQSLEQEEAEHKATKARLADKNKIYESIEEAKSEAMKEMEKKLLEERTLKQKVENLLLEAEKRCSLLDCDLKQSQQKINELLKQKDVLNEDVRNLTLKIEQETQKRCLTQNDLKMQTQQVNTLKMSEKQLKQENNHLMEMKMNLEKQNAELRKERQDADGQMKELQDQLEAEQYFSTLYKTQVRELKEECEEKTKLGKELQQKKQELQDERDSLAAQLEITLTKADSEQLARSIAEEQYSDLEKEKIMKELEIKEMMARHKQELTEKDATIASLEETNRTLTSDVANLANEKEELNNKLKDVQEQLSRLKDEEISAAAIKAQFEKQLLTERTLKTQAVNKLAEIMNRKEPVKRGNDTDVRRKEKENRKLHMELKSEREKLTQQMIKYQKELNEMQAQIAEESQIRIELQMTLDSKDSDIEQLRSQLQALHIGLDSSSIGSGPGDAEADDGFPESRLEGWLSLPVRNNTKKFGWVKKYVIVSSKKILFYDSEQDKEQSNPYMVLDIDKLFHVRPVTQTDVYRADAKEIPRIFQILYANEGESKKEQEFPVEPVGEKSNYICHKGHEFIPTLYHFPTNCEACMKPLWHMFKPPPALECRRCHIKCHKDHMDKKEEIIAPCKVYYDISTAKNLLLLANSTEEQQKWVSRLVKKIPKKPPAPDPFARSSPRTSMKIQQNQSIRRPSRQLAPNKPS

T1 sequence (P09874 whole entry): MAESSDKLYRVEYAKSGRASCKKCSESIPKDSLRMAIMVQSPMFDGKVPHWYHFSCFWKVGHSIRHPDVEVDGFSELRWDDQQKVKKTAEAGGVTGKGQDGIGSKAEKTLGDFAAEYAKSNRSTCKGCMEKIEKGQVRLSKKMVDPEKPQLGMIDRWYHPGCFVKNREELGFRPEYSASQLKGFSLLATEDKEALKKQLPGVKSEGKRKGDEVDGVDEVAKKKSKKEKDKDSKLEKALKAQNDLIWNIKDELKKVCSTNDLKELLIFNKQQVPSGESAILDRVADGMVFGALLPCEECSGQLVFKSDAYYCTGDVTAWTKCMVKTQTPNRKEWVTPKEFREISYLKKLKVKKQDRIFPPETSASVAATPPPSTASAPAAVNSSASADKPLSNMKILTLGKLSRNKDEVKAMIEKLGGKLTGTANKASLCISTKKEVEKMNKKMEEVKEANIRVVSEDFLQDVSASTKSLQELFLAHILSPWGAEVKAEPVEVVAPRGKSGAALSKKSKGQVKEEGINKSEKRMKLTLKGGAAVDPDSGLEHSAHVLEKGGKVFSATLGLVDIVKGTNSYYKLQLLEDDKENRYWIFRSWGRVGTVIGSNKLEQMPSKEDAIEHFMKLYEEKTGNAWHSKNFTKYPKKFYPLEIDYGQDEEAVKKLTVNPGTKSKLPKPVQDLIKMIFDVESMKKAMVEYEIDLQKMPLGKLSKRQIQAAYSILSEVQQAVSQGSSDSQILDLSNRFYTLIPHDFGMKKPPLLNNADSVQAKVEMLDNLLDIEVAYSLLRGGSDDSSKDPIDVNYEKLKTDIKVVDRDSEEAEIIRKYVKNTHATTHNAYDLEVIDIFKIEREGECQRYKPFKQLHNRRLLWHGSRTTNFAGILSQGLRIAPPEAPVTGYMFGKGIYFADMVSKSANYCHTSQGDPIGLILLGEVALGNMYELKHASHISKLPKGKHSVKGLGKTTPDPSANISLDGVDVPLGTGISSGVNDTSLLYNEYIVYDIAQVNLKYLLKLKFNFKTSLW
Rho-associated protein kinase 1, sequence (Q13464 whole entry): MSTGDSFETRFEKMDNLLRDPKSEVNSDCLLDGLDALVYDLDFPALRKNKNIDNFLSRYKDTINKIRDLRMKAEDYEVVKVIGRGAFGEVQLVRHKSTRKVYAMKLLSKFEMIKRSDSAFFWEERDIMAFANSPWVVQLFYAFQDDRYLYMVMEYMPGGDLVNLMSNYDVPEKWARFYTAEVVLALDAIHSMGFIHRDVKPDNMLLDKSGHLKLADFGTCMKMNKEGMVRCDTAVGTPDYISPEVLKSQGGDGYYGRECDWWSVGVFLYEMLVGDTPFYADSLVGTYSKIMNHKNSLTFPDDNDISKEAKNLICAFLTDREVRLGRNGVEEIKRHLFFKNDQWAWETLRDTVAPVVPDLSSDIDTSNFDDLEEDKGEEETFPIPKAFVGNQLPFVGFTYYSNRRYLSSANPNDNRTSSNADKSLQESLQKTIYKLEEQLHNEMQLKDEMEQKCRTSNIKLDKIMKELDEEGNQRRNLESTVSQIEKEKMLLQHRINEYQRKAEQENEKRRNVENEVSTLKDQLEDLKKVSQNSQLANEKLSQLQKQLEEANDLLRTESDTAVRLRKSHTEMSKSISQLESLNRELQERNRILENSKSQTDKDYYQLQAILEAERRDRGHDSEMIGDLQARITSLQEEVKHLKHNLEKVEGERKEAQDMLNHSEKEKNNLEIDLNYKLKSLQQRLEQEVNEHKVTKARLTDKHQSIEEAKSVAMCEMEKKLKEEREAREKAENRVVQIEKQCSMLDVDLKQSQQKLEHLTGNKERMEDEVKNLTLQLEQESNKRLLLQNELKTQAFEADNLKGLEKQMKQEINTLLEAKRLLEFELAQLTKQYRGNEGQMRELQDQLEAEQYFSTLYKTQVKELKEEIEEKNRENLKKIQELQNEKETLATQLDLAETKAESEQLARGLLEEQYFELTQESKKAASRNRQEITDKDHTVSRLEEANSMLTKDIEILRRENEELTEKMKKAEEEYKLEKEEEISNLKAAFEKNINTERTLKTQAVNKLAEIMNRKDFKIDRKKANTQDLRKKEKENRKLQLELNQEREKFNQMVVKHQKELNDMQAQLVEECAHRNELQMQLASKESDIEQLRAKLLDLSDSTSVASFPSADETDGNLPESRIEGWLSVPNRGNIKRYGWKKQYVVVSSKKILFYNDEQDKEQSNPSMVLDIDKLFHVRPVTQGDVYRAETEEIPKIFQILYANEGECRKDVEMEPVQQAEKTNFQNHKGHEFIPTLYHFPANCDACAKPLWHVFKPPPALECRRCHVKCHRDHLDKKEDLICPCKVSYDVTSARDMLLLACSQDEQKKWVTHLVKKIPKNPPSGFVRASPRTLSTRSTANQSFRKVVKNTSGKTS
Bromodomain-containing protein 2, sequence (P25440 whole entry): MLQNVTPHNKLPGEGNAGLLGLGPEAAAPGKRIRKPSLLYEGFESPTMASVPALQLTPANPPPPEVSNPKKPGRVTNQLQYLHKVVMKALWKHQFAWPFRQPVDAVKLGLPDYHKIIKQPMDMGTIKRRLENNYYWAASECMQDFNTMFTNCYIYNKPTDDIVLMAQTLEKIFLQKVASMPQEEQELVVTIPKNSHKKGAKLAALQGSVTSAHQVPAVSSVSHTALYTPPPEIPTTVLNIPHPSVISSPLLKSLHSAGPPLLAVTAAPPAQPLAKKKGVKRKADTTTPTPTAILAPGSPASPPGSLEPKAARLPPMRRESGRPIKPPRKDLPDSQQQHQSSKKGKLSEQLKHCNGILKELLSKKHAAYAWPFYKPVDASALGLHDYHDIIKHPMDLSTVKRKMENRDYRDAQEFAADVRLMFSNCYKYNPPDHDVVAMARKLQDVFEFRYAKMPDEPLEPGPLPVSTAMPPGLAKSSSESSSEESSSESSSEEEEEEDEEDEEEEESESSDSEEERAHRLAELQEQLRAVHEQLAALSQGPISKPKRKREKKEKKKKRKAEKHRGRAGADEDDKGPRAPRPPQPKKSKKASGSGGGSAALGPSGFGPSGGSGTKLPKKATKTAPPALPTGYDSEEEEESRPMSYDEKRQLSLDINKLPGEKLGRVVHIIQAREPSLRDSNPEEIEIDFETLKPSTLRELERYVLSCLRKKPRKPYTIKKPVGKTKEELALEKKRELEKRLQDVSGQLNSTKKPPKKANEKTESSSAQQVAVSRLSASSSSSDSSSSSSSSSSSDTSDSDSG
Dihydroorotate dehydrogenase (quinone), mitochondrial, sequence (Q02127 whole entry): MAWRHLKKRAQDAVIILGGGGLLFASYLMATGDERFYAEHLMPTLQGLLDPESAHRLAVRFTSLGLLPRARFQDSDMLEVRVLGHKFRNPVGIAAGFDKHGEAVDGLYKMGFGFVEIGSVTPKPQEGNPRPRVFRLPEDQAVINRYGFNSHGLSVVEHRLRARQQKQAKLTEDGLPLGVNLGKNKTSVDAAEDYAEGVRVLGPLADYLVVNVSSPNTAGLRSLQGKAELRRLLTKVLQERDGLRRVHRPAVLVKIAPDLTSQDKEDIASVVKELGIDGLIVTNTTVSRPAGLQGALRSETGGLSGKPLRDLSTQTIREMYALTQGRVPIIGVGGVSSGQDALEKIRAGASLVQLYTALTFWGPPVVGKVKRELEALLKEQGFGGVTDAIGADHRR

Structure (SMILES): O=C1/C(=C/c2ccncc2)CN(C(=O)c2cc(Cc3n[nH]c(=O)c4ccccc34)ccc2F)C/C1=C\c1ccncc1
Ratio IC50 [1]: 40 | Ratio IC50 [2]: 200

IC50 [3]: 44 µM
Structure (SMILES): CC(=O)Nc1ccc(COc2ccc(-c3ccc(-c4nc5c(C(=O)O)cc(C)cc5[nH]4)cc3)cc2)cc1

IC50 [4]: 0.05 µM | IC50 [5]: 0.005 µM | IC50 [6]: 0.99 µM
Structure (SMILES): CCOC(=O)Nc1nc2ccc(-c3cc(Cc4n[nH]c(=O)c5ccccc45)ccc3F)cc2[nH]1

IC50 [7]: 48 µM | IC50 [3]: 0.084 µM
Structure (SMILES): O=C(O)c1cc(F)cc2[nH]c(-c3ccc(-c4ccc(NC(=O)C5CC5)cc4F)cc3F)nc12

IC50 [3]: 0.46 µM
Structure (SMILES): CC(=O)Nc1cccc(-c2ccc(-c3nc4c(C(N)=O)cccc4[nH]3)cc2)c1

inhibition [8]: 65% | inhibition [9]: 30%
Structure (SMILES): COc1cc(OC)c2c(=O)[nH]c(-c3ccc([C@@H]4CCCNC4)cc3)nc2c1

Cmax [10]: 0.02665 µg/mL | Tmax [11]: 1.58 h | IC50 [12]: 0.4 µM | inhibition [13]: 88% | MRT [14]: 5.35 h | Ratio IC50 [15]: 30 | AUC [16]: 0.1447 µg·h/mL | IC50 [17]: 4.6 µM | inhibition [18]: 92% | IC50 [19]: 0.44 µM | IC50 [20]: 0.379 µM | t1/2 [21]: 3.1 h
Structure (SMILES): COc1cc(OC)c2c(=O)[nH]c(-c3ccc(OCCOc4ccccc4C(N)=O)cc3)nc2c1

IC50 (HCC1937): 83.1 µM | IC50 (MCF7): 232 µM
Structure (SMILES): O=C(c1cc(Cc2n[nH]c(=O)c3ccccc23)ccc1F)N1CCN(C(=O)C2CC2)CC1 [OLAPARIB]

IC50 [3]: 0.061 µM
Structure (SMILES): NC(=O)c1cccc2[nH]c(-c3ccc(-c4cncc(CN5CCCC5)c4)cc3)nc12

IC50 [22]: 9.3 µM | IC50 [23]: 20.5 µM
Structure (SMILES): O=C(COc1cccc2c(=O)[nH]ccc12)c1ccccc1
